What follows are molecules tested against SARS-CoV-2 nsp12/7/8 (RTC) complex (Severe acute respiratory syndrome coronavirus 2, UniProt P0DTD1) (assay: biochemical). Settings: not given.
Assay type: biochemical

| Molecule | IC50 [µM] |
| --- | --- |
| CC1(C)[C@@H](O)CC[C@]2(C)[C@H]3C(=O)C=C4[C@@H]5C[C@@](C)(C(=O)O)CC[C@]5(C)CC[C@@]4(C)[C@]3(C)CC[C@@H]12 [Enoxolone, reference compound] | 35.5 ± 4.61 |
| CC[C@@]1([C@@H]2O[C@@H]([C@H]3O[C@@](O)(CO)[C@H](C)C[C@@H]3C)C[C@@H]2C)CC[C@H]([C@]2(C)CC[C@]3(C[C@H](O)[C@@H](C)[C@@H]([C@@H](C)[C@@H](OC)[C@H](C)C(=O)O)O3)O2)O1 [Monensin] | > 100 |
| C=C(C)[C@@H]1CC[C@]2(C=O)CC[C@]3(C)[C@H](CC[C@@H]4[C@@]5(C)CC[C@H](O)C(C)(C)[C@@H]5CC[C@]43C)[C@@H]12 [Betulinaldehyde] | > 100 |
| Cc1ccc(-n2nc(C(C)(C)C)cc2NC(=O)Nc2ccc(OCCN3CCOCC3)c3ccccc23)cc1 [Doramapimod, reference compound] | > 100 |
| C[C@H]1[C@H](C)CC[C@]2(C(=O)O)CC[C@]3(C)C(=CC[C@@H]4[C@@]5(C)C[C@@H](O)[C@H](O)[C@@](C)(CO)[C@@H]5[C@H](O)C[C@]43C)[C@H]12 [Madecassic Acid] | > 100 |
| C[C@H]1CC[C@]2(NC1)O[C@H]1C[C@H]3[C@@H]4CC[C@H]5C[C@@H](O)CC[C@]5(C)[C@H]4CC[C@]3(C)[C@H]1[C@@H]2C [Tomatidine] | 51.4 ± 5.58 |
| C[C@@H]1C(=O)O[C@H](C)[C@H]1C[C@@H](O)[C@](C)(O)[C@H]1CC[C@@]2(O)C3=CC(=O)[C@@H]4C[C@@H](O)[C@@H](O)C[C@]4(C)[C@H]3CC[C@]12C [Cyasterone] | > 100 |
| C[C@H]1[C@H](C)CC[C@]2(C)CC[C@]3(C)C(=CC[C@@H]4[C@@]5(C)CC[C@@H](O)[C@](C)(C(=O)O)[C@@H]5CC[C@]43C)[C@H]12 [Beta-Boswellic acid] | 21.1 ± 4.45 |
| C=C(CC[C@@H](C(=O)O)[C@H]1[C@H](O)C[C@@]2(C)C3=C(CC[C@]12C)[C@@]1(C)CC[C@H](OC(C)=O)C(C)(C)[C@@H]1CC3)C(C)C [Pachymic acid] | > 100 |
| CC(C)=CCC[C@](C)(O[C@@H]1O[C@H](CO)[C@@H](O)[C@H](O)[C@H]1O)[C@H]1CC[C@]2(C)[C@@H]1[C@H](O)C[C@@H]1[C@@]3(C)CC[C@H](O)C(C)(C)[C@@H]3[C@@H](O)C[C@]12C [Ginsenoside F1] | > 100 |
| C[C@H]1[C@H](C)CC[C@]2(C(=O)O)CC[C@]3(C)C(=CC[C@@H]4[C@@]5(C)C[C@@H](O)[C@H](O)[C@@](C)(CO)[C@@H]5CC[C@]43C)[C@H]12 [Asiatic Acid] | > 100 |
| CCOC(=O)N[C@@H]1CC[C@@H]2[C@@H](C1)C[C@H]1C(=O)O[C@H](C)[C@H]1[C@H]2/C=C/c1ccc(-c2cccc(F)c2)cn1 [Vorapaxar, reference compound] | > 100 |

Same assay, conditions: primer-extension PAGE assay, 150 nM RTC, 5% DMSO, 30 min preincubation at 37 °C; mean and SD of at least 3 independent experiments

| Molecule | IC50 [µM] |
| --- | --- |
| CC[C@H](CC[C@@H](C)[C@H]1CC[C@H]2[C@@H]3CC=C4C[C@@H](O[C@@H]5O[C@H](CO)[C@@H](O)[C@H](O)[C@H]5O)CC[C@]4(C)[C@H]3CC[C@]12C)C(C)C [Daucosterol, reference compound] | > 100 |
| CC1(C)CC[C@]2(NC(=O)C(C)(F)F)CC[C@]3(C)[C@H](C(=O)C=C4[C@@]5(C)C=C(C#N)C(=O)C(C)(C)[C@@H]5CC[C@]43C)[C@@H]2C1 [Omaveloxolone, reference compound] | 13 ± 4.28 |
| Nc1nc(Nc2ccc3c(c2)CC[C@@H](N2CCCC2)CC3)nn1-c1cc2c(nn1)-c1ccccc1CCC2 [Bemcentinib, reference compound] | 18.5 ± 3.41 |
| Cc1ccc(F)cc1C(=O)Nc1ccc(C(=O)N2Cc3cccn3Cc3ccccc32)c(Cl)c1 [Lixivaptan, reference compound] | > 100 |

Same assay, conditions: read-out: IC50: compound concentration required to inhibit by 50% the SARS-CoV-2 RTC enzymatic activity

| Molecule | IC50 [µM] |
| --- | --- |
| CC(=O)O[C@@H](C[C@@H](C)C1=C2C[C@H](O)[C@H]3[C@@]4(C)CCC(=O)C(C)(C)[C@@H]4CC[C@]3(C)[C@@]2(C)CC1=O)[C@H]1OC1(C)C [Alisol C monoacetate] | > 100 |
| Cc1ccccc1N=Cc1c(O)c(O)c(C(C)C)c2cc(C)c(-c3c(C)cc4c(C(C)C)c(O)c(O)c(C=Nc5ccccc5C)c4c3O)c(O)c12 [3-methyl-8-[(2-methylphenyl)iminomethyl]-5-propan-2-yl-2-[1,6,7-trihydroxy-3-methyl-8-[(2-methylphenyl)iminomethyl]-5-propan-2-ylnaphthalen-2-yl]naphthalene-1,6,7-triol] | 28.4 ± 7.42 |
| CC[C@H](/C=C/[C@@H](C)[C@H]1CC[C@H]2C3=CC[C@H]4C[C@@H](O[C@@H]5O[C@H](CO)[C@@H](O)[C@H](O)[C@H]5O)CC[C@]4(C)[C@H]3CC[C@]12C)C(C)C [Alpha-Spinasterol glucoside] | > 100 |
| O=C(Nc1cccc(C(=O)O)c1)/C(=C\c1ccccc1)NC(=O)c1ccc(NC(=O)c2ccccc2)cc1 [3-[[(E)-2-[(4-benzamidobenzoyl)amino]-3-phenylprop-2-enoyl]amino]benzoic acid] | 85.7 ± 0.62 |
| Dryocrassin ABBA | 14.5 ± 5.46 |
| O=C(CCn1c2c(c3ccccc31)CCn1c-2nc2ccccc2c1=O)N1CCN(C2=Nc3ccccc3Oc3ccccc32)CC1 [13-{3-[4-(dibenzo[b,f][1,4]oxazepin-11-yl)piperazin-1-yl]-3-oxopropyl}-8,13-dihydroindolo[2',3':3,4]pyrido[2,1-b]quinazolin-5(7H)-one] | > 100 |
| CC(C)(O)[C@H]1CC[C@@](C)([C@H]2CC[C@]3(C)[C@@H]2[C@H](O)C[C@@H]2[C@@]4(C)CC[C@H](O)C(C)(C)[C@@H]4[C@@H](O[C@@H]4O[C@H](CO)[C@@H](O)[C@H](O)[C@H]4O)C[C@]23C)O1 [Pseudoginsenoside Rt5] | > 100 |
| CC(C)C1=C2[C@H]3CC[C@@H]4[C@@]5(C)CC[C@H](OC(=O)CC(C)(C)C(=O)O)C(C)(C)[C@@H]5CC[C@@]4(C)[C@]3(C)CC[C@@]2([C@@H](O)CN(CCN(C)C)Cc2ccc(Cl)cc2)CC1=O [Gsk-2838232, reference compound] | > 100 |
| Cc1ccc(NC(=O)[C@H]2CCCN(C(=O)c3c(C)cccc3F)[C@H]2c2ccc(NC3CCCC3)cc2)cc1C(F)(F)F [Avacopan, reference compound] | > 100 |
| CC(C)=CCc1c(-c2ccc(O)cc2O)oc2c([C@H]3C=C(C)C[C@@H](c4ccc(O)cc4O)[C@@H]3C(=O)c3ccc(O)cc3O)c(O)cc(O)c2c1=O [Kuwanon G] | 41 ± 6.18 |
| CC1(C)[C@H](OC(=O)c2ccccc2)CC[C@]2(C)C3=C([C@@H](O)C[C@@H]12)[C@@]1(C)CC[C@@]2(C)CC[C@@](C)(COC(=O)c4ccccc4)C[C@H]2[C@]1(C)CC3 [3,29-Dibenzoyl Rarounitriol] | > 100 |
| C[C@H]1O[C@@H](O[C@H]2CC[C@@]3(C)[C@@H](CC[C@]4(C)[C@@H]3C=C[C@]35OC[C@@]6(CCC(C)(C)C[C@H]63)[C@H](O)C[C@]54C)[C@]2(C)CO)[C@H](O)[C@@H](O[C@@H]2O[C@H](CO)[C@@H](O)[C@H](O)[C@H]2O)[C@H]1O [Saikosaponin D] | > 100 |

From PMC12519464, “Dual-Site Inhibition of SARS-CoV‑2 RNA-Dependent RNA Polymerase by Small Molecules Able to Block Viral Replication Identified through a Computer-Aided Drug Discovery Approach” (ACS Infectious Diseases, 2025)
